Experimental data as given in paper PMC7551591, “The Effect of Resveratrol or Curcumin on Head and Neck Cancer Cells Sensitivity to the Cytotoxic Effects of Cisplatin” (Nutrients, 2020).

Assays:
Type in all cases: cell-based, human
[1] = test system: PE/CA-PJ49 tumor cells; experiment: MTT drug sensitivity (viability) assay, tumor cells; details: PE/CA-PJ49, 24 h
Method: (§1) The MTT assay is based on the ability of viable cells to reduce the reagent 3-(4,5-dimethylthiazol-2-yl)-2,5-diphenyltetrazolium bromide to colored formazan compounds [48]. Because the transformation is only possible in viable cells, the amount of blue formazan is proportional to the number of viable cells and thus, a linear dependence exists between cell activity and absorbance. Cells were seeded in triplicate in 96-well plates at a density of 5000 cells/well, incubated at 37 °C for 24 h. […] After the incubation period, 20 μL MTT (5 mg/mL in PBS) was added and further incubated for 4 h. The supernatant was removed, and the formazan product was analyzed spectrophotometrically (570 nm) after dissolution in DMSO. Wells without cells serve as a blank, and their absorbance was subtracted from the other results. Untreated cells were used as control and their viability was assumed as 100%. Results were expressed as mean values of three determinations ± standard deviation (SD). Data are presented as percent of cell viability and compared to untreated [Viability% = (T − B)/(U − B) × 100, {where T = absorbance of treated cells; U = absorbance of untreated cells, B = absorbance of blank}]. Once percent viability was obtained, the drug response curve was generated, and inhibitory concentration (IC50 and IC25) was calculated using GraphPad Prism version 5.01 [49].
(§2) SI values of more than 2 were considered as indicative of high selectivity.
(§3) The anticancer cytotoxic activity in vitro was evaluated by the MTT assay. […] The most widely used and informative measure of a drug’s efficacy is IC50-the half-maximal inhibitory concentration. IC50 was determined at half of the difference between the maximum (plateau) and minimum absorbance values, by plotting the absorbance value at 570 nm (Y axis) versus the concentration of the compound analysed (X axis). The IC50 values were reported as a mean of three independent experiments ± standard deviation (S.D.).

[2] = test system: HUVEC normal cells; experiment: MTT drug sensitivity (viability) assay, normal cells; details: 24 h
Method: as §1, §2, §3

[3] = test system: p21 protein (CIP1/CDKN1A) expression in HUVEC; experiment: Total p21 protein ELISA in cell lysates, normal cells; details: 24 h
Method: (§4) After incubation, cells were washed twice with ice-cold PBS, scraped, pelleted and lysed in RIPA buffer (Pierce) supplemented with protease inhibitor cocktail (Roche) and phosphatase inhibitor (Roche) for 30 min on ice. The lysates were transfered into microcentrifuge tubes and centrifuged at 14,000× g for 5 min at 4 °C followed by sonication (10–15 s × 3). The supernatants were collected into clean microcentrifuge tubes and stored at −80 °C. Lysates protein concentration were quantified by BCA protein assay kit (Thermo Scientific) and aliquots of 50 μg of total cell lysate were used for ELISA assay.
(§5) DuoSetR IC ELISA-Human Total p21/CIP1/CDKN1A(: DYC1047-2) was purchased from R&D Systems Inc. and contains the basic components required for the development of sandwich ELISAs to measure human p21 protein also known as CIP1 and CDKN1A in cell lysates. An immobilized capture antibody specifically binds human p21. After washing away unbound material, a biotinylated detection antibody specific for human p21 is used to detect the captured protein, utilizing a standard Streptavidin-HRP format. All experiments were performed in triplicates and absorbance was measured at λ = 450 nm using a Dynex plate reader.
(§6) In cancer development and evolution p21 protein might acts as an oncogene or tumor suppressor and for this reason it could be an important player in processes such as the cancer aggressiveness or the response to chemotherapy. In this study, using ELISA assay we analyzed the expression level of p21 in the tumor cells (PE-CA/PJ49) compared to a normal cells (HUVEC).

[4] = test system: p21 protein (CIP1/CDKN1A) expression in PE/CA-PJ49; experiment: Total p21 protein ELISA in cell lysates, tumor cells; details: 24 h
Method: as §4, §5, §6

[5] = test system: PE/CA-PJ49 tumor cells; experiment: Annexin V-FITC/PI apoptosis flow cytometry, tumor cells; details: 24 h
Method: (§7) The apoptosis assay was carried out with the Annexin V-FITC kit using the manufacturer’s (BD Pharmingen) protocol. Treated and untreated 1 × 10^6 cells/mL were resuspended in cold binding buffer and staining simultaneously with 5 μL FITC-Annexin V (green fluorescence) and 5 μL propidium iodide (PI) in the dark, at room temperature for 15 min. Then, 400μL of Annexin V binding buffer was added and 10,000 cells/sample were acquired using a BD Canto II flow cytometer. The analysis was performed using DIVA 6.2 software in order to discriminate viable cells (FITC^−PI^−) from necrotic cells […] and early apoptosis (FITC^+PI^−) from late apoptosis.
(§8) Apoptosis can be seen as an efficient method of preventing malignant transformation, as it ensures the removal of cells which present with genetic alterations. Deficient apoptosis can promote the development of cancer, both through the accumulation of cells found during division and the blocking of the removal of cells with high malignant potential genetic variations. The factors which determine the cells to follow one of three possible pathways are not yet known – the start of apoptosis after cellular injury, the repair of the lesion or the continuation of the cellular cycle. Many therapeutical agents have anti-tumoral effects generated by their capacity to activate the apoptotic process. […] The flow cytometric analysis was performed using DIVA 6.2 software and allowed to discriminate viable cells (FITC^−PI^− = Q3) from necrotic cells (FITC^−PI^+ = Q1) and early apoptosis (FITC^+PI^− = Q4) from late apoptosis (FITC^+PI^+ = Q2).

[6] = test system: HUVEC normal cells; experiment: Annexin V-FITC/PI apoptosis flow cytometry, normal cells; details: 24 h; for Apoptoza Tarzie = Q2 (%): late apoptosis; for Apoptoza Totală = Q2+Q4 (%): total apoptosis
Method: as §7, §8

[7] = test system: PE/CA-PJ49 tumor cells; experiment: Cell cycle phase distribution by PI flow cytometry, tumor cells; details: 24 h, CisPt 20 μM
Method: (§9) For analysis of cell-cycle distribution, the cells were collected after treatment, fixed with 70% ethanol for at least one hour at 4 °C. The cells were stained with propidium iodide (PI) an agent which intercalates into the major groove of double-stranded DNA and produces a highly fluorescent adduct that can be excited at 488 nm with a broad emission around 600 nm. Since PI can also bind to double-stranded RNA, it is necessary to treat the cells with RNase for optimal DNA resolution. Cells (1×10^6 cells/mL) were washed in PBS and centrifuge at 300× g, 5 min at 4 °C. The pellet of the cells were incubated for 10 min at 37 °C with 0.5 mg/sample RNase A and then was added 10 μg/sample of PI staining solution to cell pellet, mix well and incubated 10 min at 37 °C. The samples stored at 4 °C until analyzed by flow cytometry. A minimum of 20,000 events for each sample were collected using a FACS CantoII flow cytometer and ModFIT software (BectonDickinson) and used to determine the cell cycle phase distribution after debris exclusion.
(§10) The progression through the cell cycle phases induced by treatment were evaluated by flow cytometry using a FACSCanto II flow cytometer. Data analysis were performed using the ModFit 3.2 program which offers the possibility of evaluating the cell cycle phases distribution (G0/G1, S, G2 + M).

[8] = test system: HUVEC normal cells; experiment: Cell cycle phase distribution by PI flow cytometry, normal cells; details: 24 h
Method: as §9, §10

N.N.[Cl][Pt][Cl] [CisPt, cis-diamminedichloroplatinum]
cell viability (MTT) ([1]; CisPt 5 μM vs untreated cells): significantly affected | cell viability (MTT) ([1]; CisPt 20 μM vs untreated cells): significantly affected | IC 25 ([1]; MTT): 3.95 ± 1.2 µM | IC50 ([1]; MTT): 9.72 ± 1.7 µM | cell viability (MTT) ([2]; CisPt 5 μM vs untreated cells): significantly reduced | cell viability (MTT) ([2]; CisPt 20 μM vs untreated cells): significantly reduced | IC 25 ([2]; MTT): 5.82 ± 1.1 µM | IC50 ([2]; MTT): 20.9 ± 2.1 µM | p21 pg/mL HUVEC ([3]; 5 μM CisPt): 238 pg/mL | p21 pg/mL HUVEC ([3]; 20 μM CisPt): 195 pg/mL | p21 pg/mL PE/CA-PJ49 ([4]; 5 μM CisPt): 1157 pg/mL | p21 pg/mL PE/CA-PJ49 ([4]; 20 μM CisPt): 915 pg/mL | Early Apoptosis = Q4 (%) ([5]; 5 μM CisPt): 11.3% | Late Apoptosis = Q2 (%) ([5]; 5 μM CisPt): 1.2% | Necrosis = Q1 (%) ([5]; 5 μM CisPt): 2.1% | Total Apoptosis = Q2 + Q4 (%) ([5]; 5 μM CisPt): 12.5% | Early Apoptosis = Q4 (%) ([5]; 20 μM CisPt): 15.3% | Late Apoptosis = Q2 (%) ([5]; 20 μM CisPt): 2.1% | Necrosis = Q1 (%) ([5]; 20 μM CisPt): 1.4% | Total Apoptosis = Q2 + Q4 (%) ([5]; 20 μM CisPt): 17.4% | Early Apoptosis = Q4 (%) ([6]; 5 μM CisPt): 5.6% | Necrosis = Q1 (%) ([6]; 5 μM CisPt): 1.6% | Early Apoptosis = Q4 (%) ([6]; 20 μM CisPt): 7.7% | Necrosis = Q1 (%) ([6]; 20 μM CisPt): 1.5% | Apoptoza Tarzie = Q2 (%) ([6]; 5 μM CisPt): 0.5% | Apoptoza Tarzie = Q2 (%) ([6]; 20 μM CisPt): 0.5% | Apoptoza Totală = Q2+Q4 (%) ([6]; 5 μM CisPt): 6.1% | Apoptoza Totală = Q2+Q4 (%) ([6]; 20 μM CisPt): 8.2% | G2/M% [7]: 27.5% | synthesis phase (S) ([8]; 5 μM CisPt): 29.2% | S% ([8]; CisPt 20 μM): 39.65%
